Laboratory results taken from patent publication US20260022142A1, “MACROCYCLIC IMMUNOMODULATORS” (Bristol-Myers Squibb Company, priority 2022, published 2026).
Bridge positions count the residues as written; N and C are the ends. Square brackets hold non-standard residues; d marks the D form. Peptide text beside a SMILES is read from it. * marks the point of attachment. ξ: configuration not given here. ξPhe(4-guanidino) = N=C(N)Nc1ccc(CC(N)C(=O)O)cc1; Phe(3-CONH2) = NC(=O)c1cccc(C[C@H](N)C(=O)O)c1; Bip = N[C@@H](Cc1ccc(-c2ccccc2)cc1)C(=O)O; Phe(3-Me) = Cc1cccc(C[C@H](N)C(=O)O)c1; NH(CH2)12COOH = O=C(O)CCCCCCCCCCCCN*; Cha = N[C@@H](CC1CCCCC1)C(=O)O; Ile(3ξ) = CCC(C)[C@H](N)C(=O)O; Thr(3ξ) = CC(O)[C@H](N)C(=O)O; 12Ado = NCCCCCCCCCCCC(=O)O; Carboxymethyl = O=C(O)C*; Orn = NCCC[C@H](N)C(=O)O; Aun = NCCCCCCCCCCC(=O)O; Dab = NCC[C@H](N)C(=O)O; AEEA = NCCOCCOCC(=O)O

Target: T1, PD-1/PD-L1 interaction (PE-labeled human PD-L1-Ig binding to Jurkat cell line over-expressing human PD-1) (Homo sapiens, UniProt Q15116)
T1 construct: expressed in transfected cells; host or cells: Jurkat
Assay: Jurkat-PD-1 Cell Binding High-Content Screening Assay (CBA)
Format: cell-based
Details: Jurkat cell line over-expressing human PD-1; PE-labeled PD-L1-Ig 20 nM final; read-out: Jurkat hPD1-PDL1 IC50
Outline: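 Binding of fluorescent PD-L1-Ig (phycoerythrin on Ig tag, 20 nM final, 1 h) measured by high-content imaging of fixed, Hoechst-counterstained Jurkat-hPD-1 cells. Compound added 2 h at 37° C beforehand, in DMEM with 10% fetal calf serum.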

T1 sequence (Q15116 25-288): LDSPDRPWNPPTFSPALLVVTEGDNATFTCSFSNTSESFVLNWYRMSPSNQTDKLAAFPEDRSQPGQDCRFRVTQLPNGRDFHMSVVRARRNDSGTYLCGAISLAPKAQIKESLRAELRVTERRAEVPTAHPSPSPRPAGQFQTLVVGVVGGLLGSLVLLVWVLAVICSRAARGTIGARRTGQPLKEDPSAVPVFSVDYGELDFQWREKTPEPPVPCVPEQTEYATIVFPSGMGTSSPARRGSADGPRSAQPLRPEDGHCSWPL

Structure (SMILES) | IC50
CCC(C)[C@@H]1NC(=O)[C@H](Cc2ccc(-c3ccccc3)cc2)NC(=O)[C@H](C(C)C)NC(=O)[C@H](Cc2cccc(C)c2)NC(=O)[C@H](CC(=O)O)NC(=O)[C@H](Cc2ccc(OCC(=O)O)cc2)NC(=O)[C@H](C(C)O)NC(=O)CSC[C@@H](C(=O)N[C@@H](CCN)C(=O)NCCCCCCCCCCCCC(=O)O)NC(=O)[C@H](CO)NC(=O)[C@H](C(C)C)NC(=O)[C@H](CC2CCCCC2)NC(=O)[C@H](CCN)NC(=O)[C@@H](CC(C)C)NC(=O)[C@H](CCCN)NC1=O (stereo partly drawn) [Compound 3093] ({CH2CO}-[Thr(3ξ)]Y(Carboxymethyl)D[Phe(3-Me)]V[Bip][Ile(3ξ)][Orn][dL][Dab][Cha]VSC[Dab]-{NH(CH2)12COOH}; thioether N-14) | 50.1 nM
CCC(C)[C@@H]1NC(=O)[C@H](Cc2ccc(-c3ccccc3)cc2)NC(=O)[C@H](C(C)C)NC(=O)[C@H](Cc2cccc(C)c2)NC(=O)[C@H](CC(=O)O)NC(=O)[C@H](Cc2ccc(OCC(=O)O)cc2)NC(=O)[C@H](C(C)O)NC(=O)CSC[C@@H](C(=O)N[C@@H](CCCN)C(=O)NCCCCCCCCCCCC(=O)O)NC(=O)[C@H](C(C)O)NC(=O)[C@H](C(C)C)NC(=O)[C@H](CC2CCCCC2)NC(=O)[C@H](CCN)NC(=O)[C@@H](CC(C)C)NC(=O)[C@H](CCCN)NC1=O (stereo partly shown) [Compound 3098] | 25.6 nM
CCC(C)[C@@H]1NC(=O)[C@H](CC2CCCCC2)NC(=O)[C@H](CCN)NC(=O)[C@@H](CC(C)C)NC(=O)[C@H](CCCN)NC(=O)[C@H](C(C)CC)NC(=O)[C@H](Cc2ccc(-c3ccccc3)cc2)NC(=O)[C@H](CC(C)C)NC(=O)[C@H](Cc2c[nH]c3ccccc23)NC(=O)[C@H](CC(=O)O)NC(=O)[C@H](Cc2ccc(OCC(=O)O)cc2)NC(=O)[C@H](Cc2cccc(C(N)=O)c2)NC(=O)CSC[C@@H](C(=O)N[C@@H](CC(N)=O)C(=O)NCCOCCOCC(=O)NCCCCCCCCCCC(=O)O)NC(=O)[C@H](CO)NC1=O (stereo partly drawn) [Compound 3116] ({CH2CO}-[Phe(3-CONH2)]Y(Carboxymethyl)DWL[Bip][Ile(3ξ)][Orn][dL][Dab][Cha][Ile(3ξ)]SCN[AEEA][Aun]-OH; thioether N-14) | 43.4 nM
CCC(C)[C@@H]1NC(=O)[C@H](CC2CCCCC2)NC(=O)[C@H](CCN)NC(=O)[C@@H](CC(C)C)NC(=O)[C@H](CCCN)NC(=O)[C@H](C(C)CC)NC(=O)[C@H](Cc2ccc(-c3ccccc3)cc2)NC(=O)[C@H](CC(C)C)NC(=O)[C@H](Cc2c[nH]c3ccccc23)NC(=O)[C@H](CC(=O)O)NC(=O)[C@H](Cc2ccc(OCC(=O)O)cc2)NC(=O)C(Cc2ccc(N=C(N)N)cc2)NC(=O)CSC[C@@H](C(=O)N[C@@H](CC(N)=O)C(=O)NCCOCCOCC(=O)NCCCCCCCCCCC(=O)O)NC(=O)[C@H](CO)NC1=O (stereo partly drawn) [Compound 3117] ({CH2CO}-[ξPhe(4-guanidino)]Y(Carboxymethyl)DWL[Bip][Ile(3ξ)][Orn][dL][Dab][Cha][Ile(3ξ)]SCN[AEEA][Aun]-OH; thioether N-14) | 160 nM
CCC(C)[C@@H]1NC(=O)[C@H](CC2CCCCC2)NC(=O)[C@H](CCN)NC(=O)[C@@H](CC(C)C)NC(=O)[C@H](CCCN)NC(=O)[C@H](C(C)CC)NC(=O)[C@H](Cc2ccc(-c3ccccc3)cc2)NC(=O)[C@H](C(C)CC)NC(=O)[C@H](Cc2c[nH]c3ccccc23)NC(=O)[C@H](CC(=O)O)NC(=O)[C@H](Cc2ccc(OCC(=O)O)cc2)NC(=O)[C@H](C(C)O)NC(=O)CSC[C@@H](C(=O)N[C@H](CC(N)=O)C(=O)NCCOCCOCC(=O)N2CCC[C@@H]2C(=O)NCCCCCCCCCCC(=O)O)NC(=O)[C@H](CO)NC1=O (stereo partly drawn) [Compound 3118] ({CH2CO}-[Thr(3ξ)]Y(Carboxymethyl)DW[Ile(3ξ)][Bip][Ile(3ξ)][Orn][dL][Dab][Cha][Ile(3ξ)]SC[dN][AEEA][dP][Aun]-OH; thioether N-14) | 30.4 nM
CCC(C)[C@@H]1NC(=O)[C@H](CC2CCCCC2)NC(=O)[C@H](CCN)NC(=O)[C@@H](CC(C)C)NC(=O)[C@H](CCCN)NC(=O)[C@H](C(C)CC)NC(=O)[C@H](Cc2ccc(-c3ccccc3)cc2)NC(=O)[C@H](C(C)CC)NC(=O)[C@H](Cc2c[nH]c3ccccc23)NC(=O)[C@H](CC(=O)O)NC(=O)[C@H](Cc2ccc(OCC(=O)O)cc2)NC(=O)[C@H](C(C)O)NC(=O)CSC[C@@H](C(=O)N[C@H](CC(N)=O)C(=O)NCCOCCOCC(=O)N[C@@H](Cc2c[nH]cn2)C(=O)NCCCCCCCCCCC(=O)O)NC(=O)[C@H](CO)NC1=O (stereo partly drawn) [Compound 3119] ({CH2CO}-[Thr(3ξ)]Y(Carboxymethyl)DW[Ile(3ξ)][Bip][Ile(3ξ)][Orn][dL][Dab][Cha][Ile(3ξ)]SC[dN][AEEA]H[Aun]-OH; thioether N-14) | 24.6 nM

Next, values leading:

IC50 | Structure (SMILES)
10.1 nM | CCC(C)[C@@H]1NC(=O)[C@H](Cc2ccc(-c3ccccc3)cc2)NC(=O)[C@H](C(C)C)NC(=O)[C@H](Cc2cccc(C)c2)NC(=O)[C@H](CC(=O)O)NC(=O)[C@H](Cc2ccc(OCC(=O)O)cc2)NC(=O)[C@H](C(C)O)NC(=O)CSC[C@@H](C(=O)NCCOCCOCC(=O)N[C@@H](CCCCN)C(=O)NCCCCCCCCCCCC(=O)O)NC(=O)[C@H](C(C)O)NC(=O)[C@H](C(C)C)NC(=O)[C@H](CC2CCCCC2)NC(=O)[C@H](CCN)NC(=O)[C@@H](CC(C)C)NC(=O)[C@H](CCCN)NC1=O (stereo partly drawn) [Compound 3095] ({CH2CO}-[Thr(3ξ)]Y(Carboxymethyl)D[Phe(3-Me)]V[Bip][Ile(3ξ)][Orn][dL][Dab][Cha]V[Thr(3ξ)]C[AEEA]K[12Ado]-OH; thioether N-14)
12.1 nM | CCC(C)[C@@H]1NC(=O)[C@H](Cc2ccc(-c3ccccc3)cc2)NC(=O)[C@H](C(C)C)NC(=O)[C@H](Cc2c[nH]c3ccccc23)NC(=O)[C@H](CC(=O)O)NC(=O)[C@H](Cc2ccc(OCC(=O)O)cc2)NC(=O)[C@H](CCN)NC(=O)CSC[C@@H](C(=O)NCCOCCOCC(=O)N[C@@H](CCCCN)C(=O)NCCCCCCCCCCCC(=O)O)NC(=O)[C@H](C(C)O)NC(=O)[C@H](C(C)C)NC(=O)[C@H](CC2CCCCC2)NC(=O)[C@H](CCN)NC(=O)[C@@H](CC(C)C)NC(=O)[C@H](CCCN)NC1=O (stereo partly drawn) [Compound 3096] ({CH2CO}-[Dab]Y(Carboxymethyl)DWV[Bip][Ile(3ξ)][Orn][dL][Dab][Cha]V[Thr(3ξ)]C[AEEA]K[12Ado]-OH; thioether N-14)
22.8 nM | CCC(C)[C@@H]1NC(=O)[C@H](Cc2ccc(-c3ccccc3)cc2)NC(=O)[C@H](C(C)C)NC(=O)[C@H](Cc2c[nH]c3ccccc23)NC(=O)[C@H](CC(=O)O)NC(=O)[C@H](Cc2ccc(OCC(=O)O)cc2)NC(=O)[C@H](C(C)O)NC(=O)CSC[C@@H](C(=O)N[C@@H](CCCN)C(=O)NCCCCCCCCCCCC(=O)O)NC(=O)[C@H](C(C)O)NC(=O)[C@H](C(C)C)NC(=O)[C@H](CC2CCCCC2)NC(=O)[C@H](CCN)NC(=O)[C@@H](CC(C)C)NC(=O)[C@H](CCCN)NC1=O (stereo partly drawn) [Compound 3097] ({CH2CO}-[Thr(3ξ)]Y(Carboxymethyl)DWV[Bip][Ile(3ξ)][Orn][dL][Dab][Cha]V[Thr(3ξ)]C[Orn][12Ado]-OH; thioether N-14)
19.1 nM | CCC(C)[C@@H]1NC(=O)[C@H](Cc2ccc(-c3ccccc3)cc2)NC(=O)[C@H](C(C)C)NC(=O)[C@H](Cc2c[nH]c3ccccc23)NC(=O)[C@H](CC(=O)O)NC(=O)[C@H](Cc2ccc(OCC(=O)O)cc2)NC(=O)[C@H](CO)NC(=O)CSC[C@@H](C(=O)N[C@@H](CCCN)C(=O)NCCCCCCCCCCC(=O)O)NC(=O)[C@H](C(C)O)NC(=O)[C@H](C(C)C)NC(=O)[C@H](CC2CCCCC2)NC(=O)[C@H](CCN)NC(=O)[C@@H](CC(C)C)NC(=O)[C@H](CCCN)NC1=O (stereo partly drawn) [Compound 3099] ({CH2CO}-SY(Carboxymethyl)DWV[Bip][Ile(3ξ)][Orn][dL][Dab][Cha]V[Thr(3ξ)]C[Orn][Aun]-OH; thioether N-14)
